From patent US10351522B2, “Sulfonamide derivative and pharmaceutically acceptable acid addition salt thereof” (UNIVERSITY OF TSUKUBA, priority 2015, dated 2019)

Tests used:
human OX2R = molecular target: T1, human OX2R (Homo sapiens, UniProt O43614); test: Agonist activity against OX2R: intracellular calcium (Fura-2AM, FDSS7000) in CHOOX2R cells; type: cell-based; conditions: relative to orexin-A as full agonist (100%)
T1 construct: expressed in transfected cells; host or cells: CHO (Chinese hamster ovary) cells, line CHOOX2R, co-expressing NFAT-luciferase
T1 sequence (O43614 1-444): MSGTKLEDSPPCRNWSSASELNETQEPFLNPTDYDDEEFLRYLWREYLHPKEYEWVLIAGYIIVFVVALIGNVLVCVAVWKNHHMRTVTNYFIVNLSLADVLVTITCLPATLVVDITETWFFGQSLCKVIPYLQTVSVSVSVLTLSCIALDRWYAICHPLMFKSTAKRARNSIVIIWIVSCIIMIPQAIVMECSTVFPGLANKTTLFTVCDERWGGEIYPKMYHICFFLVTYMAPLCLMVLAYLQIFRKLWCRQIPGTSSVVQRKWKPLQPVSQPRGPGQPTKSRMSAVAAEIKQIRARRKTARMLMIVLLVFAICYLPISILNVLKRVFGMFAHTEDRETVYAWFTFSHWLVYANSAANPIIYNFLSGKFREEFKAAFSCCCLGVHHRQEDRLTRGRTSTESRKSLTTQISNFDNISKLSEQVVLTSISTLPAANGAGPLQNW
Procedure, shortened: (§1)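 CHO cells stably expressing human OX1R or OX2R (plus NFAT-luciferase) were loaded with 5 μM Fura-2AM for 60 min, then given compound at 10^−7 to 10^−5 M final (1% DMSO). Calcium change read as 340/380 nm excitation fluorescence ratio; response expressed as % of orexin-A maximal activity at 10, 1.0 and 0.1 μM.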

human OX1R = molecular target: T2, human OX1R (Homo sapiens, UniProt O43613); test: Agonist activity against OX1R: intracellular calcium (Fura-2AM, FDSS7000) in CHOOX1R cells; type: cell-based; conditions: relative to orexin-A as full agonist (100%)
T2 construct: expressed in transfected cells; host or cells: CHO (Chinese hamster ovary) cells, line CHOOX1R, co-expressing NFAT-luciferase
T2 sequence (O43613 1-425): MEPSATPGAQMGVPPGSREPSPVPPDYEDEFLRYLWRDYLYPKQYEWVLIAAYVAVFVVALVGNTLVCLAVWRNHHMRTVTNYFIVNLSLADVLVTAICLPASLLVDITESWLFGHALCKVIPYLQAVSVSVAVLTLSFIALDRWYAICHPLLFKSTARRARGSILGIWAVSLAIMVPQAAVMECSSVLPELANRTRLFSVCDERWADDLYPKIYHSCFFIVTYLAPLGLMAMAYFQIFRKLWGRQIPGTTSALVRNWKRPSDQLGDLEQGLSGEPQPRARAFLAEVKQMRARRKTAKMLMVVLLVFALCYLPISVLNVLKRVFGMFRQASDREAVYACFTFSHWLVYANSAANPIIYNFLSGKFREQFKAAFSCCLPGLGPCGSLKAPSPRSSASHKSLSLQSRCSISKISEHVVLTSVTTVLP
Procedure, shortened: as §1

Row | Structure (SMILES) | Response (%) OX2R (human OX2R; 0.1 μM test compound) [%] | Response (%) OX2R (human OX2R; 1.0 μM test compound) [%] | Response (%) OX2R (human OX2R; 10 μM test compound) [%] | Response (%) OX1R (human OX1R; 0.1 μM test compound) [%] | Response (%) OX1R (human OX1R; 1.0 μM test compound) [%] | Response (%) OX1R (human OX1R; 10 μM test compound) [%] | Emax at 0.1 µM (human OX1R; 0.1 μM test compound, read-out: Response (%) OX1R) [%] | Emax at 1 µM (human OX1R; 1.0 μM test compound, read-out: Response (%) OX1R) [%] | Emax at 10 µM (human OX1R; 10 μM test compound, read-out: Response (%) OX1R) [%] | Response (%) OX2R (human OX2R; test compound 0.1 μM) [%] | Response (%) OX2R (human OX2R; test compound 1.0 μM) [%] | Response (%) OX2R (human OX2R; test compound 10 μM) [%] | Response (%) OX1R (human OX1R; test compound 0.1 μM) [%] | Response (%) OX1R (human OX1R; test compound 1.0 μM) [%] | Response (%) OX1R (human OX1R; test compound 10 μM) [%]
1 | COC(=O)c1cccc(NC(=O)Nc2cccc(NS(=O)(=O)c3cc(-c4cccc(C(=O)N(C)C)c4)ccc3OC)c2)c1 [Example 45] | 82 | 97 | 100 | <5 | <5 | <5 |  |  |  |  |  |  |  |  | 
2 | COc1ccc(-c2cccc(C(=O)N(C)C)c2)cc1S(=O)(=O)Nc1cccc(NC(=O)Nc2cccc(NC(=O)OC(C)(C)C)c2)c1 [Example 62] | 6 | 7 | 9 | 9 | 8 | 13 |  |  |  |  |  |  |  |  | 
3 | COc1ccc(-c2cccc(C(=O)N(C)C)c2)cc1S(=O)(=O)Nc1cccc(NC(=O)c2ccccc2N(C)C)c1 [Example 6] | 9 | 17 | 32 | 7 | 7 | 6 |  |  |  |  |  |  |  |  | 
4 | COc1ccc(-c2cccc(C(=O)N(C)C)c2)cc1S(=O)(=O)Nc1cccc(NC(=O)c2ccccc2)c1 [Example 1, 3′-(N-(3-benzamidophenyl)sulfamoyl)-4′-methoxy-N,N-dimethyl-[1,1′-biphenyl]-3-carboxamide] | <5 | 6 | 67 |  |  |  | < 5 | < 5 | < 5 |  |  |  |  |  | 
5 | COc1ccccc1C(=O)Nc1cccc(NS(=O)(=O)c2cc(-c3cccc(C(=O)N(C)C)c3)ccc2OC)c1 [Example 18] | <5 | 6 | 44 | <5 | <5 | 15 |  |  |  |  |  |  |  |  | 
6 | COc1ccc(-c2cccc(C(=O)N(C)C)c2)cc1S(=O)(=O)Nc1cccc(NC(=O)Nc2cccc([N+](=O)[O-])c2)c1 [Example 57] | 91 | 92 | 60 | <5 | <5 | <5 |  |  |  |  |  |  |  |  | 
7 | COc1ccc(-c2cccc(C(=O)N(C)C)c2)cc1S(=O)(=O)Nc1cccc(NCc2ccccc2C)c1 [Example 24] | <5 | 72 | 93 | <5 | <5 | 6 |  |  |  |  |  |  |  |  | 
8 | COc1ccc(-c2cccc(C(=O)N(C)C)c2)cc1S(=O)(=O)Nc1cccc(Nc2ccc3c(c2)OCO3)c1 [Example 36] | <5 | 63 | 93 | <5 | <5 | 10 |  |  |  |  |  |  |  |  | 
9 | COc1ccc(-c2cccc(C(=O)N(C)C)c2)cc1S(=O)(=O)Nc1cccc(NC(=O)NCc2ccccc2)c1 [Example 66] | 79 | 70 | 60 | 6 | 6 | 7 |  |  |  |  |  |  |  |  | 
10 | CCN(Cc1ccccc1)C(=O)c1ccc(OC)c(S(=O)(=O)Nc2cccc(NC(=O)Nc3cccc(N(C)C)c3)c2)c1 [Example 101] |  |  |  |  |  |  |  |  |  | 20 | 89 | 111 | <5 | <5 | <5
11 | COc1ccc(-c2cccc(C(=O)N(C)C)c2)cc1S(=O)(=O)Nc1cccc(Nc2ccc(C(=O)N(C)C)cc2)c1 [Example 34] | <5 | 52 | 95 | <5 | <5 | <5 |  |  |  |  |  |  |  |  | 
12 | COc1ccc(-c2cccc(C(=O)N(C)C)c2)cc1S(=O)(=O)Nc1cccc(NC(=O)Nc2ccccc2C)c1 [Example 51] | 93 | 85 | 88 | <5 | 36 | 67 |  |  |  |  |  |  |  |  | 
13 | COc1ccc(-c2cccc(C(=O)N(C)C)c2)cc1S(=O)(=O)Nc1cccc(NC(=O)Nc2ccccn2)c1 [Example 68] | 10 | 10 | 57 | 6 | 6 | 6 |  |  |  |  |  |  |  |  | 
14 | COc1cccc(Nc2c(Nc3cccc(NS(=O)(=O)c4cc(-c5cccc(C(=O)N(C)C)c5)ccc4OC)c3)c(=O)c2=O)c1 [Example 82] |  |  |  |  |  |  |  |  |  | <5 | <5 | 16 | <5 | <5 | 7
15 | COc1ccc(-c2cccc(C(=O)N(C)C)c2)cc1S(=O)(=O)Nc1cccc(NCc2ccc(C)cc2)c1 [Example 27] | 90 | 126 | 92 | <5 | 24 | 70 |  |  |  |  |  |  |  |  | 
16 | COc1ccc(-c2cccc(C(=O)N(C)C)c2)cc1S(=O)(=O)Nc1cccc(NC(=O)Nc2cc([N+](=O)[O-])cc([N+](=O)[O-])c2)c1 [Example 47] | 7 | 81 | 102 | <5 | <5 | <5 |  |  |  |  |  |  |  |  | 
17 | COc1ccc(-c2cccc(C(=O)N(C)C)c2)cc1S(=O)(=O)Nc1cccc(NC(=O)/C=C/c2ccoc2)c1 [Example 14] | <5 | 18 | 74 | <5 | <5 | <5 |  |  |  |  |  |  |  |  | 
